Results published in article PMC12718081 (ACS Infectious Diseases, 2025).
Where “and” joins values, the source holds several entries; their conditions need not be identical. Equal entries are not always repeated. Where two headings read alike, the source gives them in different places.

Key:
[1] = test system: adult schistosomes (male and female worms); assay: Adult worm ex vivo high-content image-based motility assay; assay type: cell-based, Schistosoma mansoni
Experimental: Adult schistosomes’ motility was determined using a high-content assay previously developed by our group, , with images analyzed in CellProfiler software. More details are provided in the Supporting Information.
(§1) Adult worm ex-vivo high-content assay
“Area” and “False Negative Rate” from the MeasureObjectSizeShape and MeasureObjectOverlap modules, respectively. These measurements were then modeled by a multilevel generalized linear statistical model. The effects of the experimental treatments on […]
(§2) The half-maximal inhibitory
(§3) Windows (GraphPad Software, Boston, MA, USA; www.graphpad.com). […]
with DMSO as a negative control.

juvenile schistosomes = assay: Microscopy analysis of juvenile morphology and motility (viability score 0-3); details: 72 h; for number of juvenile worms with viability score 0 / number of juvenile worms with viability score 1 / number of juvenile worms with viability score 2 / number of juvenile worms with viability score 3: 10 μM, Table S1
Eg.TRPMPZQ = Eg.TRPMPZQ (Echinococcus granulosus, UniProt W6UVV9); assay: cell-based; details: HEK293, Ca2+ reporter, mean ± standard deviation; read-out: Bmax, Eg.TRPMPZQ activation
Sm.TRPMPZQ (wild-type) = Sm.TRPMPZQ (wild-type) (Schistosoma mansoni, UniProt A0A5K4F0X5); assay: Ca2+ reporter (FLIPR) activation assay, wild-type Sm.TRPMPZQ in HEK293 cells; assay type: cell-based; details: for EC50: 0.001 to 100 μM; for Emax: read-out: Bmax, wild-type Sm.TRPMPZQ activation
Experimental: (§4) The Ca^2+ reporter assay was performed using a Fluorescence Imaging Plate Reader (FLIPR) system, as described in the Supporting Information. […]
as §2, §3
(§5) with DMSO as a negative control. […]
(§6) reader. […] The fluorescence
(§7) Untransfected HEK293 cells were used as a control.
(§8) 10% fetal bovine serum (FBS). […]
(§9) atmosphere containing 5% CO₂. Following incubation, the growth medium was removed and […]
buffer containing 2.5 mM probenecid in HBSS (with Ca²⁺ and Mg²⁺), 20 mM HEPES, 0.3% BSA (Sigma, A7030), and 0.03% L-ascorbic acid (Sigma). Cells were incubated for 40 minutes at 37 °C and subsequently for 20 minutes at room temperature. […]
prepared in assay buffer without dye and probenecid and dispensed into separate flat-bottom 384-well plates. Calcium flux measurements were performed at room temperature using a […]
(§10) instrument (Molecular Devices). Baseline fluorescence was recorded for 20 seconds, followed by the addition of 5 µL of each drug solution, after which fluorescence was measured continuously for 250 seconds. […]

[2] = test system: HepG2 hepatic epithelial cells; assay: in vitro; details: for Selectivity Index (CC50/EC50), Female: HepG2 CC50 / female worm motility EC50, 48 h; for Selectivity Index (CC50/EC50), Male: HepG2 CC50 / male worm motility EC50, 48 h
Experimental: (§11) Next, we conducted a more detailed investigation by performing dose–response assays with each compound on HepG2 hepatic epithelial cells, as the liver is one of the major organs affected in intestinal schistosomiasis.
(§12) More details are provided in the Supporting Information.
as §1
(§13) Male and female worms were placed in 96-well microplates (one worm per well) and incubated […]
(§14) to 72 hours. Brightfield timelapse images (100 images, 0.3-second intervals) were captured from each well before, immediately after, and every 24 hours following compound addition using an ImageXpress Micro Confocal High Content System equipped with a 2x objective. Image analysis was performed through a custom pipeline in CellProfiler software (v. 4.2.1, Windows OS).57 During analysis, the area of each worm and its displacement between consecutive image captures (i.e., images taken at successive time points) were measured using the parameters “Area” and “False Negative Rate” from the MeasureObjectSizeShape and MeasureObjectOverlap modules, respectively. These measurements were then modeled by a multilevel generalized linear statistical model. The effects of the experimental treatments on parasite motility were estimated with the integrated nested Laplace approximation (INLA) method, available in the INLA package of R (https://www.r-inla.org). The half-maximal inhibitory concentration (EC50) of each compound was calculated based on the worms' estimated motility using the […] 4-parameter logistic equation in GraphPad Prism version 9.0.0 for Windows (GraphPad Software, Boston, MA, USA; www.graphpad.com). […]
(§15) either at a fixed concentration (10 µM) or across a range of concentrations (0.0001–300 µM), or with DMSO as a negative control. Two hours before the end of the experiment (t0), a resazurin solution (final concentration: 0.01 mg/mL) was added to each well and the first fluorescence […]
(§16) reader. At the end of the incubation (t1), a second reading was performed. The fluorescence attributed solely to resorufin was measured by subtracting the fluorescence readings at t0 from those at t1. The results were expressed as percentual cell viability considering negative control

in vitro = details: human, HepG2 cytotoxicity (CC50)
Experimental: as §11, §12, §1, §13, §14, §15, §16

Sm.TRPMMCLZ = assay: Ca2+ reporter (FLIPR) activation assay, Sm.TRPMMCLZ in HEK293 cells; assay type: cell-based, Schistosoma mansoni; details: at the tested concentrations, data not shown
Experimental: (§17) Finally, selectivity for Sm.TRPMPZQ was assessed by profiling responses on the F. hepatica (Fh.TRPMPZQ) and E. granulosus (Eg.TRPMPZQ) TRPMPZQ orthologs, as well as the schistosome TRPM paralog Sm.TRPMMCLZ, a distinct TRPM channel activated by meclonazepam. Meclonazepam is an anthelmintic benzodiazepine known for its toxicity to juvenile schistosome worms.
as §4, §2, §3, §5, §6, §7, §8, §9
(§18) buffer containing 2.5 mM probenecid in HBSS (with Ca²⁺ and Mg²⁺), 20 mM HEPES, 0.3% BSA (Sigma, A7030), and 0.03% L-ascorbic acid (Sigma). Cells were incubated for 40 minutes at 37 °C and subsequently for 20 minutes at room temperature. A total of seven PZQ derivatives were tested, using racemic PZQ included as a positive control on each assay plate. Drug dilutions were prepared in assay buffer without dye and probenecid and dispensed into separate flat-bottom 384-well plates. Calcium flux measurements were performed at room temperature using a […]
as §10

Fh.TRPMPZQ = assay: Ca2+ reporter (FLIPR) activation assay, Fh.TRPMPZQ in HEK293 cells; assay type: cell-based, Fasciola hepatica; details: at the tested concentrations, data not shown
Experimental: as §17, §4, §2, §3, §5, §6, §7, §8, §9, §18, §10

[3] = Schistosoma mansoni, 0 h, female adult worms, 0 h (immediately after addition), single experiment or geometric mean, read-out: Female worm motility inhibition (EC50)
[4] = Schistosoma mansoni, 0 h, male adult worms, 0 h (immediately after addition), single experiment or geometric mean, read-out: Male worm motility inhibition (EC50)
[5] = Schistosoma mansoni, 0 h, male, 0 h, individual experiments, read-out: Male worm motility inhibition (EC50), values of independent experiments
[6] = Schistosoma mansoni, 24 h, female adult worms, 24 h, single experiment or geometric mean, read-out: Female worm motility inhibition (EC50)
[7] = Schistosoma mansoni, 24 h, male adult worms, 24 h, single experiment or geometric mean, read-out: Male worm motility inhibition (EC50)
[8] = Schistosoma mansoni, 24 h, male, 24 h, individual experiments, read-out: Male worm motility inhibition (EC50), values of independent experiments
[9] = Schistosoma mansoni, 48 h, female adult worms, 48 h, single experiment or geometric mean, read-out: Female worm motility inhibition (EC50)
[10] = Schistosoma mansoni, 48 h, male adult worms, 48 h, single experiment or geometric mean, read-out: Male worm motility inhibition (EC50)
[11] = Schistosoma mansoni, 72 h, female adult worms, 72 h, single experiment or geometric mean, read-out: Female worm motility inhibition (EC50)
[12] = Schistosoma mansoni, 72 h, male adult worms, 72 h, single experiment or geometric mean, read-out: Male worm motility inhibition (EC50)
[13] = Schistosoma mansoni, 72 h, male, 72 h, individual experiments, read-out: Male worm motility inhibition (EC50), values of independent experiments
[14] = female, 0 h, individual experiments, read-out: Female worm motility inhibition (EC50), values of independent experiments
[15] = female, 48 h, individual experiments, read-out: Female worm motility inhibition (EC50), values of independent experiments
[16] = male, 0 h, individual experiments, read-out: Male worm motility inhibition (EC50), values of independent experiments
[17] = male, 24 h, individual experiments, read-out: Male worm motility inhibition (EC50), values of independent experiments
[18] = male, 48 h, individual experiments, read-out: Male worm motility inhibition (EC50), values of independent experiments
[19] = male, 72 h, individual experiments, read-out: Male worm motility inhibition (EC50), values of independent experiments
[20] = values of independent experiments

Chain of Sm.TRPMPZQ (wild-type) (A0A5K4F0X5 entry or part of it): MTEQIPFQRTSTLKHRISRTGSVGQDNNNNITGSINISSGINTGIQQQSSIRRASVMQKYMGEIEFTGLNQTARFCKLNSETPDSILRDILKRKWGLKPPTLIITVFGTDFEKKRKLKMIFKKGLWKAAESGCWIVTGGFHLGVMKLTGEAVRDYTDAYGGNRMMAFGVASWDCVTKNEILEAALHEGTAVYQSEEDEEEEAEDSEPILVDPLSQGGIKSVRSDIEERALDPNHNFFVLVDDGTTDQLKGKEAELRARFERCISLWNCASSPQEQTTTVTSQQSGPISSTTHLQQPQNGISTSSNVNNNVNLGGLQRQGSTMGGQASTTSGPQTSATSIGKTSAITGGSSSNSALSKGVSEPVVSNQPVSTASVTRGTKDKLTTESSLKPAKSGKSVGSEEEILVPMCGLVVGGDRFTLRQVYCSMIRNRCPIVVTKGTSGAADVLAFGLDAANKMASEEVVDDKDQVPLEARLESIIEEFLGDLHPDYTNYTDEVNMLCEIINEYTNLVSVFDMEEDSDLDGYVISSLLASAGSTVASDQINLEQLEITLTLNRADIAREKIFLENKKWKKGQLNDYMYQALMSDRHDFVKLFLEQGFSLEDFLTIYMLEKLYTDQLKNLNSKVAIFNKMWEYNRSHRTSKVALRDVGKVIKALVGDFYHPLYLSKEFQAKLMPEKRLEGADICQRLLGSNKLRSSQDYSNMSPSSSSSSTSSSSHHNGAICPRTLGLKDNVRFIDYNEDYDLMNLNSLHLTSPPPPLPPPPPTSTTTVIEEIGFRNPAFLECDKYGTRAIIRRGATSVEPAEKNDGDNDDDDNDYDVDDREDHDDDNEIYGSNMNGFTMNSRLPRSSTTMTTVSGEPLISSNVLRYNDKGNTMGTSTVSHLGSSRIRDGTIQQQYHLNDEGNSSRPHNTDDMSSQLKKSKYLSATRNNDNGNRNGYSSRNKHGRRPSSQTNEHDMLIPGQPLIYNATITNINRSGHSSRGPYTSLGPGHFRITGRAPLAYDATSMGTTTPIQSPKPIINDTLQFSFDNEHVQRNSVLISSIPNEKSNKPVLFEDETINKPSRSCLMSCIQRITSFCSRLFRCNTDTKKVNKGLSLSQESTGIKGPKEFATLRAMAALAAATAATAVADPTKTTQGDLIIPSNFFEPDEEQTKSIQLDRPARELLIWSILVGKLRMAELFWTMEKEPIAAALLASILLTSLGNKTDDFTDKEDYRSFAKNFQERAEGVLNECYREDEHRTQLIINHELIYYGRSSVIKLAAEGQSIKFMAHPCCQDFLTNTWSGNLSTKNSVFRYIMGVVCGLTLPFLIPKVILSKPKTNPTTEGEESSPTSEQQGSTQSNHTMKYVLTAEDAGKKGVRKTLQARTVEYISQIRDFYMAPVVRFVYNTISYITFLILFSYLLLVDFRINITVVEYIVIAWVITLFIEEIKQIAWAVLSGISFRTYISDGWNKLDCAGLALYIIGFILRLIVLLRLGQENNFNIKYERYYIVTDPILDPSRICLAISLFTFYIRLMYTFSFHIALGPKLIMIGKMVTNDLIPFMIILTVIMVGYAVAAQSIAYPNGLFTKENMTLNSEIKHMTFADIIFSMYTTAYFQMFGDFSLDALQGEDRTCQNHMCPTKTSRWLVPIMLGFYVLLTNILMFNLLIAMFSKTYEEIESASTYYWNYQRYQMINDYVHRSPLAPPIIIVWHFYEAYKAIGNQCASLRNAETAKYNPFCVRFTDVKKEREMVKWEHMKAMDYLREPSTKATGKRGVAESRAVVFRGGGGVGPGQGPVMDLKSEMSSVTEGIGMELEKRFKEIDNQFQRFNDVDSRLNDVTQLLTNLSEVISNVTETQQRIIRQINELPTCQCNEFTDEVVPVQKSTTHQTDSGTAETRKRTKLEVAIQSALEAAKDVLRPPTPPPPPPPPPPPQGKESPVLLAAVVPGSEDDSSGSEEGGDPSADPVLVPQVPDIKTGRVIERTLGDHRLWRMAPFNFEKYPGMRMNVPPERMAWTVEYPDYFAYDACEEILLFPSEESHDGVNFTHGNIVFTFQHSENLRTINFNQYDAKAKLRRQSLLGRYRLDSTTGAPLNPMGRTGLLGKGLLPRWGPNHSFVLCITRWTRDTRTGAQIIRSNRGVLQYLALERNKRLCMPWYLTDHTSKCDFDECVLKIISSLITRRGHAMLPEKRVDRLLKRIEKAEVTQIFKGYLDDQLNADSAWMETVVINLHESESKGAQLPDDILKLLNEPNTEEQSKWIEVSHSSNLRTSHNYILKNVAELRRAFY
Chain of Eg.TRPMPZQ (W6UVV9 entry or part of it): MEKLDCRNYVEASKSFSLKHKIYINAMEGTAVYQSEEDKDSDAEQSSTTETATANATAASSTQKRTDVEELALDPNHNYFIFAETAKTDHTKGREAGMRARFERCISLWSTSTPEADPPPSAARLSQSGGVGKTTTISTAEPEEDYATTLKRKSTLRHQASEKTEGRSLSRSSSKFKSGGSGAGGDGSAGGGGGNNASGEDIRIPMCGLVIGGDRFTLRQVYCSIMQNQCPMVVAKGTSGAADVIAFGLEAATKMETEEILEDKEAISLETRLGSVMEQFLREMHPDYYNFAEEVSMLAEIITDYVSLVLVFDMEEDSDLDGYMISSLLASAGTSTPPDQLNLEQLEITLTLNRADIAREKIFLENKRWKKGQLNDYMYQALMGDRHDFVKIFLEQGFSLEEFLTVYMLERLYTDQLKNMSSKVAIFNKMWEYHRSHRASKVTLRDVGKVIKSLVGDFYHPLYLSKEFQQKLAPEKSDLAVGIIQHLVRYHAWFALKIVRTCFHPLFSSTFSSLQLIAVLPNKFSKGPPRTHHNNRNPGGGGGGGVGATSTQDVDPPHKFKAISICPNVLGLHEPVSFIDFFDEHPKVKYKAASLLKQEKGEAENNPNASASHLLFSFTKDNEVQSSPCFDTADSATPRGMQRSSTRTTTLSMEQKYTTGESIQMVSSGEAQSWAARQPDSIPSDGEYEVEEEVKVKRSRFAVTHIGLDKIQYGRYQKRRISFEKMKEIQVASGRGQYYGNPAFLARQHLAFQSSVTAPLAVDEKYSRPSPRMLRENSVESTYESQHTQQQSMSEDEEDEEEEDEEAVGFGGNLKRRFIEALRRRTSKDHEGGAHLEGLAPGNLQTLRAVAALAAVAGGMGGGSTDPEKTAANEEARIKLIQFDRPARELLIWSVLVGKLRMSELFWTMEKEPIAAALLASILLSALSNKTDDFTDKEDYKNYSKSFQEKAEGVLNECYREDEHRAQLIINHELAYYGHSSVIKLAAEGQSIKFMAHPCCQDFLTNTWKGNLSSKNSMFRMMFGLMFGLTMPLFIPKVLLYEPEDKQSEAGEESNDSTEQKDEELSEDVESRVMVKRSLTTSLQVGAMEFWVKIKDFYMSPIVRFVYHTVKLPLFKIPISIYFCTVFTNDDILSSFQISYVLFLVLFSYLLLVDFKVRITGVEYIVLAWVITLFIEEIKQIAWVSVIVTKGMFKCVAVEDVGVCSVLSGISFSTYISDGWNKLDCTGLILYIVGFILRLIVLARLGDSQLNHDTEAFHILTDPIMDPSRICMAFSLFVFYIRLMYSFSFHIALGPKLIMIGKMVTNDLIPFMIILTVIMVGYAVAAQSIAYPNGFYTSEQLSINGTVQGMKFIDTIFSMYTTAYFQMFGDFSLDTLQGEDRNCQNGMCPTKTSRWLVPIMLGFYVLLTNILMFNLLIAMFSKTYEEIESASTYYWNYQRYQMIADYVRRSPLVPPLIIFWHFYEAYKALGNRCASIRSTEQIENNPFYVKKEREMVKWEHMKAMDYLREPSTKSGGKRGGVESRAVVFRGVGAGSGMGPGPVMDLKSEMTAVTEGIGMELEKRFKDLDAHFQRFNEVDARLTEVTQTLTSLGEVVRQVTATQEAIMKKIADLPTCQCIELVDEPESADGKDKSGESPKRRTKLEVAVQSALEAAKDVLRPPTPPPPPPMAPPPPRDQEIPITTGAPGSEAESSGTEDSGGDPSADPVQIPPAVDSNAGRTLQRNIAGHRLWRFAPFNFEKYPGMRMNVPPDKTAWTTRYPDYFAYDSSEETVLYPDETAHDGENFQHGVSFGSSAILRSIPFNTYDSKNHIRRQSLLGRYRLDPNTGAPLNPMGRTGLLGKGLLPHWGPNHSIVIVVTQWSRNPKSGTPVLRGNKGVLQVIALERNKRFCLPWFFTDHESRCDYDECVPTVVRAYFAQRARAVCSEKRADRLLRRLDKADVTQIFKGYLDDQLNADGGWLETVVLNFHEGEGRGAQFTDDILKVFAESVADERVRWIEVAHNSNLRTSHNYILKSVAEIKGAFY

| Structure (SMILES) | EC50 [1, 3] [nM] | EC50 [1, 4] [nM] | EC50 [1, 5] [nM] | EC50 [1, 6] [nM] | EC50 [1, 7] [nM] | EC50 [1, 8] [nM] | EC50 [1, 9] [nM] | EC50 [1, 10] [nM] | EC50 [1, 11] [nM] | EC50 [1, 12] [nM] | EC50 [1, 13] [nM] | EC50 [1, 14] | EC50 [1, 15] | EC50 [1, 16] [nM] | EC50 [1, 17] | EC50 [1, 18] | EC50 [1, 19] | number of juvenile worms with viability score 0 (juvenile schistosomes) | number of juvenile worms with viability score 1 (juvenile schistosomes) | number of juvenile worms with viability score 2 (juvenile schistosomes) | further results |
| --- | --- | --- | --- | --- | --- | --- | --- | --- | --- | --- | --- | --- | --- | --- | --- | --- | --- | --- | --- | --- | --- |
| CCCc1cn(-c2ccc3c(c2)C2CN(C(=O)C4CCCCC4)CC(=O)N2CC3)nn1 (stereo not shown) [Compound 5e] | 3500 | 2600 | 2500 | 3600 | 2500 | 2290 | 3900 | 1900 | 3100 | 1700 | 1640 | 2780 nM | 4770 nM | 2680 | 2320 nM and 2840 nM | 2120 nM and 1990 nM | 1990 nM | 61 | 7 | 34 | EC50 ([1]; Schistosoma mansoni, 0 h, female, 0 h, individual experiments, read-out: Female worm motility inhibition (EC50), values of independent experiments): 2980 nM; EC50 ([1]; Schistosoma mansoni, 24 h, female, 24 h, individual experiments, read-out: Female worm motility inhibition (EC50), values of independent experiments): 3700 nM; EC50 ([1]; Schistosoma mansoni, 48 h, female, 48 h, individual experiments, read-out: Female worm motility inhibition (EC50), values of independent experiments): 3140 nM; EC50 ([1]; Schistosoma mansoni, 48 h, male and female, 48 h, read-out: EC50 against schistosomes (adult motility), span over male and female): 1900 to 3900 nM; EC50 ([1]; Schistosoma mansoni, 48 h, male, 48 h, individual experiments, read-out: Male worm motility inhibition (EC50), values of independent experiments): 1700 nM; EC50 ([1]; Schistosoma mansoni, 72 h, female, 72 h, individual experiments, read-out: Female worm motility inhibition (EC50), values of independent experiments): 2940 nM; EC50 ([1]; Schistosoma mansoni, female, 0-72 h, read-out: EC50 against female adult worms (motility), span over incubation times): 3100 to 3900 nM; EC50 ([1]; female, 72 h, individual experiments, read-out: Female worm motility inhibition (EC50), values of independent experiments): 3300 nM; number of juvenile worms with viability score 3 (juvenile schistosomes): 6; viability at 10 µM (juvenile schistosomes; Schistosoma mansoni, read-out: Relative frequency of viability score 3): 5.6%; Emax (Eg.TRPMPZQ): 132 ± 15%; EC50 (Sm.TRPMPZQ (wild-type)): 4230 ± 150 nM; Emax (Sm.TRPMPZQ (wild-type)): 90.2 ± 1.53%; Selectivity Index (CC50/EC50), Female [2]: 75.4 and 75; Selectivity Index (CC50/EC50), Male [2]: 154.7 and 155; Selectivity Index (SI), sex not specified ([2]; HepG2 vs adult worms, 48 h): > 100; CC50 at 48 h (in vitro): ~300000 nM; CC50 at 48 h (in vitro; [20]): 286000 nM; activation of Sm.TRPMMCLZ (Sm.TRPMMCLZ): did not activate; activation of Fh.TRPMPZQ (Fh.TRPMPZQ): did not activate |
| [N-]=[N+]=Nc1ccc2c(c1)C1CN(C(=O)C3CCCCC3)CC(=O)N1CC2 (stereo not shown) [Compound 4] | 6700 | 2300 | 2830 | 3150 | 1800 | 2560 | 9400 | 1600 | 3480 | 1300 | 1220 | 14800 nM and 3020 nM | 26800 nM and 3340 nM | 1930 | 1420 nM and 1740 nM | 2370 nM and 1100 nM and 1710 nM | 1000 nM and 1720 nM | 48 | 4 | 25 | EC50 ([1]; Schistosoma mansoni, male, 0-72 h, read-out: EC50 against male adult worms (motility), span over incubation times): 1300 to 2300 nM; EC50 ([1]; female adult worms, 24 h, single experiment or geometric mean, read-out: Female worm motility inhibition (EC50)): 3100 nM; EC50 ([1]; female adult worms, 72 h, single experiment or geometric mean, read-out: Female worm motility inhibition (EC50)): 3500 nM; number of juvenile worms with viability score 3 (juvenile schistosomes): 12; Emax (Eg.TRPMPZQ): 145 ± 14.6%; EC50 (Sm.TRPMPZQ (wild-type)): 890 ± 30 nM; Emax (Sm.TRPMPZQ (wild-type)): 80.5 ± 2.19%; Selectivity Index (CC50/EC50), Female [2]: 16.6 and 17; Selectivity Index (CC50/EC50), Male [2]: 97.7 and 98; CC50 at 48 h (in vitro): 156000 nM; CC50 at 48 h (in vitro; [20]): 155000 nM; activation of Sm.TRPMMCLZ (Sm.TRPMMCLZ): did not activate; activation of Fh.TRPMPZQ (Fh.TRPMPZQ): did not activate |
